Row | melting point | Compound
1 | 292 to 295 °C | C[C@@H](c1ccccc1)n1c(O)nc2c(N)nc3ccccc3c21 [Example 5, 4-Amino-1-[(1S)-1-phenylethyl]-1H-imidazo[4,5-c]quinolin-2-ol]
2 | 240 to 242 °C | COc1nc2c(N)nc3ccccc3c2n1Cc1ccccc1 [Example 7, 1-Benzyl-2-methoxy-1H-imidazo[4,5-c]quinolin-4-amine]

— patent publication US8377957B2, “Hydroxy and alkoxy substituted 1H-imidazoquinolines and methods” (3M Innovative Properties Company, priority 2005, dated 2013)
